Data set [1] relates to CYP3A5. Particulars: human liver microsomes of CYP3A5*1/*1 (EM) donors; cited from earlier work. On the technique in general: Microsomes from liver hold many membrane-bound enzymes, among them those of drug oxidation.
The format of data set [2] is in vivo, human. As to conditions: part 1.
The test system of data set [3] is HIV‐1. Put plainly: Study 1. As to conditions: for subjects who discontinued the study because of lack of efficacy: through week 96, maraviroc. Format: in vivo.
Data set [4] concerns HIV. Particulars: viral inhibition; cited from earlier work.
For data set [5], the system named is HIV‐1. As to conditions: 48 weeks, cited from earlier work.
Data set [6] concerns HIV‐1. Particulars: study 1; cited from earlier work.
[7] abbreviates: week 48, efavirenz 600 mg once daily + zidovudine/lamivudine, EMs (2 CYP3A5*1 alleles).
Setting [8] is: week 48, efavirenz 600 mg once daily + zidovudine/lamivudine, IMs (1 CYP3A5*1 allele).
[9] abbreviates: week 48, efavirenz 600 mg once daily + zidovudine/lamivudine, PMs (no CYP3A5*1 alleles).
[10] abbreviates: week 48, efavirenz 600 mg once daily + zidovudine/lamivudine, overall.
[11] abbreviates: week 96, efavirenz 600 mg once daily + zidovudine/lamivudine, EMs (2 CYP3A5*1 alleles).
Setting [12] is: week 96, efavirenz 600 mg once daily + zidovudine/lamivudine, IMs (1 CYP3A5*1 allele).
[13] abbreviates: week 96, efavirenz 600 mg once daily + zidovudine/lamivudine, PMs (no CYP3A5*1 alleles).
[14] abbreviates: week 96, efavirenz 600 mg once daily + zidovudine/lamivudine, overall.
[15] abbreviates: week 48, maraviroc 300 mg twice daily + zidovudine/lamivudine, EMs (2 CYP3A5*1 alleles).
Where [16] appears, read: week 48, maraviroc 300 mg twice daily + zidovudine/lamivudine, IMs (1 CYP3A5*1 allele).
Setting [17] is: week 48, maraviroc 300 mg twice daily + zidovudine/lamivudine, PMs (no CYP3A5*1 alleles).
The mark [18] stands for this setting: week 48, maraviroc 300 mg twice daily + zidovudine/lamivudine, overall.
Setting [19] is: week 96, maraviroc 300 mg twice daily + zidovudine/lamivudine, EMs (2 CYP3A5*1 alleles).
[20] abbreviates: week 96, maraviroc 300 mg twice daily + zidovudine/lamivudine, IMs (1 CYP3A5*1 allele).
[21] abbreviates: week 96, maraviroc 300 mg twice daily + zidovudine/lamivudine, PMs (no CYP3A5*1 alleles).
[22] abbreviates: week 96, maraviroc 300 mg twice daily + zidovudine/lamivudine, overall.

Like-named read-outs stand apart in the source and are kept apart here.

For the compound `Cc1nnc(C(C)C)n1C1C[C@H]2CC[C@@H](C1)N2CC[C@H](NC(=O)[C@H]1CCC(F)(F)[C@H](O)C1)c1ccccc1` (stereo partly drawn) [(1S,3R)-3-hydroxymaraviroc, (1S,3R)‐3‐hydroxymaraviroc], the “CYP3A5 contribution to the formation of this metabolite” value (“CYP3A5 contribution to the formation” below) in data set [1] is listed as “minimal”. Moreover, the “mean MRAUC12 across all cohorts” value in data set [2] is “comparable”.
For the compound `O=C1Nc2ccc(Cl)cc2[C@@](C#CC2CC2)(C(F)(F)F)O1` [Efavirenz], the “Proportion of subjects with HIV-1 RNA <50 copies/mL” value in data set [3] (setting [7]) is 19/30 (63.3) %; in data set [3] (setting [8]) it was 68/96 (70.8) %; in data set [3] (setting [9]), 113/164 (68.9) %; in data set [3] (setting [10]), 200/290 (69.0) %; in data set [3] (setting [11]), 17/30 (56.7) %; in data set [3] (setting [12]), 62/96 (64.6) %. For the same compound, the entries for the “Proportion of subjects with HIV-1 RNA <50 copies/mL” value in data set [3] (setting [13]) and in data set [3] (setting [14]) were 104/164 (63.4) % and 183/290 (63.1) %, respectively. The “Proportion of subjects with HIV-1 RNA <400 copies/mL” value is reported as 20/30 (66.7) % in data set [3] (setting [7]); 71/96 (74.0) % in data set [3] (setting [8]); 119/164 (72.6) % in data set [3] (setting [9]); 210/290 (72.4) % in data set [3] (setting [10]); 17/30 (56.7) % in data set [3] (setting [11]); 63/96 (65.6) % in data set [3] (setting [12]). The “Proportion of subjects with HIV-1 RNA <400 copies/mL” value in data set [3] (setting [13]) is recorded as 107/164 (65.2) %; in data set [3] (setting [14]), 187/290 (64.5) %.
In the case of `CC(C)c1nnc(CO)n1C1C[C@H]2CC[C@@H](C1)N2CC[C@H](NC(=O)C1CCC(F)(F)CC1)c1ccccc1` (some centres unmarked) [hydroxymethylmaraviroc], the “CYP3A5 contribution to the formation” value in data set [1] was 1%.
For the compound “(1R,2R)‐2‐hydroxymaraviroc [(1R,2R)-2-hydroxymaraviroc]”, the “CYP3A5 contribution to the formation” value in data set [1] was “minimal”. Further, the “mean MRAUC12 among black IMs and PMs and white PMs” value in data set [2] was “comparable”.
Regarding “(1S,3S)‐3‐hydroxymaraviroc [(1S,3S)-3-hydroxymaraviroc]”, in data set [1], the “CYP3A5 contribution to the formation” value is “minimal”. The “mean MRAUC12 across all cohorts” value in data set [2] is on record as “comparable”.
Consider Maraviroc, for which the “in vivo concentration for 50% inhibition” value in data set [4] was approximately 8 ng/mL. Further, the “blacks with viral load <50 copies/mL” value in data set [5] (once-daily maraviroc group) is recorded as 28%; in data set [5] (twice-daily maraviroc group) it was 26%. In data set [6], the “Cavg associated with near-maximal virologic efficacy” value is on record as 75 ng/mL. For the same compound, the “subjects who discontinued the study because of lack of efficacy” value was 9.3% in data set [3] (EMs (4/43)), 9.4% in data set [3] (IMs (8/85)) and 14.3% in data set [3] (PMs (25/175)). Moreover, the “Proportion of subjects with HIV-1 RNA <50 copies/mL” value was 30/43 (69.8) % in data set [3] (setting [15]); 53/85 (62.4) % in data set [3] (setting [16]); 126/175 (72.0) % in data set [3] (setting [17]); 209/303 (69.0) % in data set [3] (setting [18]); 23/43 (53.5) % in data set [3] (setting [19]); 47/85 (55.3) % in data set [3] (setting [20]). The “Proportion of subjects with HIV-1 RNA <50 copies/mL” value in data set [3] (setting [21]) was 109/175 (62.3) %; in data set [3] (setting [22]), 179/303 (59.1) %. For the same compound, the “Proportion of subjects with HIV-1 RNA <400 copies/mL” value in data set [3] (setting [15]) is 32/43 (74.4) %; in data set [3] (setting [16]), 61/85 (71.8) %; in data set [3] (setting [17]), 132/175 (75.4) %; in data set [3] (setting [18]), 225/303 (74.3) %; in data set [3] (setting [19]), 26/43 (60.5) %; in data set [3] (setting [20]), 52/85 (61.2) %. Besides, the results for the “Proportion of subjects with HIV-1 RNA <400 copies/mL” value in data set [3] (setting [21]) and in data set [3] (setting [22]) were 117/175 (66.9) % and 195/303 (64.4) %, respectively. In data set [3] (weeks 48 and 96), the “proportions of subjects with HIV-1 RNA <50 and <400 copies/mL among all 3 CYP3A5 genotypes” value was “comparable”.
